Here are results for 2 compounds from patent US20060134100A1, “Dc-sign blockers and their use for preventing or treating viral infections” (priority 2002, published 2006).

For the assay, the system named is DEN-1 virus strain FGA/NA d1d. Type of assay: cell-based. The conditions noted are these: THP/DC-SIGN cells, m.o.i. 5 AP61FFU/cell.

Description: Prior to infection, THP-1/DC/SIGN cells were incubated with either Mab 9D12 (dilution 1:50), Mab BD12.5 (20 μg/ml), Mab 1B10.2.6 (20 μg/ml), EDTA (5 mM), mannan (20 μg/ml), or mock-treated (control). Treated cells were infected with DEN-1 virus strain FGA/NA dld (5 AP61FFU/cell) in the presence of reagents for 2 hrs. Viral antigens were detected by indirect immunofluorescence as described in the legend of FIG. 1. The percentages of infected cells 48 h post-infection are indicated. Values represent the mean of triplicate assays±SD.
Cells were washed once with RPMI 1640, incubated with highly purified virus in RPMI 1640 supplemented with 0.2% bovine serum albumine (BSA, pH 7.5) (Sigma) for 2 hrs at 37° C. and placed into fresh media supplemented with 2% FCS, 2 mM L-glutamine and antibiotics Peni/Strepto at 37° C. for 40 hrs.
Adherent cells were incubated either with EDTA (5 mM), mannan (20 μg/ml), anti-DC-SIGN Mab 1B10.2.6 (20 μg/mi), anti-LMCV Mab 12.5 (isotype control, 20 μg/ml), or DEN E-specific Mab 9D12 (dilution 1:50) in RPMI 1640 supplemented with 0.2% BSA for 20 min at room temperature before binding the virus for 2 hrs. Two hours after infection, cells were washed with RPMI 1640 and incubated with RMPI 1640 2% FCS for 40 hrs. […]

For mannan, for the setting “mannan 20 μg/ml”, the “reduction of FGA/NA d1d infectivity” value came to 75%.
For the compound `O=C(O)CN(CCN(CC(=O)O)CC(=O)O)CC(=O)O` [EDTA], the “infectivity of DEN-1 virus after preincubation of cells” value (EDTA 5 mM) is “essentially abolished”.
